Reference: patent publication US10124012B2, “Method for treatment of hyperglycemia and hyperlipidemia” (priority 2016, dated 2018)

Key:
Format in all cases: in vivo, C57BL/6J mice
[1] = test system: high-fat diet-fed C57BL/6J mouse; test: Histopathology of epididymal white adipose tissue (adipocyte hypertrophy); conditions: mean area of epididymal adipocyte, HFD-fed mice
Method: Animal studies were performed and approved under the guidelines of the Institutional Animal Care and Use Committee in Taiwan (12 Mar. 2015). The 4-week old male C57BL/6J mice (total amount n=63) were obtained from the National Laboratory Animal Center (Taipei, Taiwan). After acclimatization for one week, all of the mice were randomly assigned into a control (CON) group and a high-fat diet (HFD) group. For the following 12 weeks, the CON group (n=9) received a control diet or a low-fat diet (Diet 12450B, Research Diets, Inc., New Brunswick, N.J., USA), while the HFD group (n=54) received a high-fat diet (Diet 12451, Research Diets, New Brunswick, N.J., USA). The low-fat diet was composed of protein 20%, carbohydrate 70% and fat 10%, whereas the high-fat diet was composed of protein 20%, carbohydrate 35%, and fat 45% (of total energy, % kcal). After HFD feeding for 8 weeks, the HFD group was randomly subdivided into six groups (n=9 per group) receiving different treatments and fed on HFD. […] The HF+AnK1, HF+AnK2, and HF+AnK3 groups are collectively termed AnK-treated HFD groups in the following examples. The CON mice were administered vehicle. All treatments were administered via oral gavage once daily. After administration for 4 weeks, all mice were fasted 12 hours, and blood was collected from the retro-orbital sinus under ether anesthesia. At the end of the experiment, the mice were sacrificed via carbon dioxide inhalation. Liver, adipose tissue, and skeletal muscle were collected and immediately stored at −80° C. for target gene analysis.
Parts of visceral adipose and liver specimens were fixed with formalin (200 g/kg) neutral buffered solution and embedded in paraffin. A series of 8 μm-thick sections was cut and stained with hematoxylin and eosin. For microscopic examination, a microscope (Olympus BX51, Olympus, Tokyo, Japan) was used and the images were photographed.
Adipocyte hypertrophy, the pathological enlargement of adipocytes, is often found in subjects with type 2 diabetes and hyperlipidemia. To verify the therapeutic effect of AnK on adipocyte hypertrophy, morphology of the epididymal white adipose tissue from mice of the HF group and the AnK-treated HFD groups was examined. Micrographs (magnification 200X) of the EWAT sections for each group were shown in FIG. 4 and analyzed to determine the mean area of an epididymal adipocyte.

G6Pase = test: Liver mRNA by semi-quantitative RT-PCR: G6Pase; conditions: HFD-fed mice, oral gavage once daily 4 weeks, AnK 10, 20, 40, Feno 250, Metf 300 mg/kg/day, vs HF group
Source text: (§1) The 4-week old male C57BL/6J mice (total amount n=63) were obtained from the National Laboratory Animal Center (Taipei, Taiwan). After acclimatization for one week, all of the mice were randomly assigned into a control (CON) group and a high-fat diet (HFD) group. […] After HFD feeding for 8 weeks, the HFD group was randomly subdivided into six groups (n=9 per group) receiving different treatments and fed on HFD. […] The HF+AnK1, HF+AnK2, and HF+AnK3 groups are collectively termed AnK-treated HFD groups in the following examples. The CON mice were administered vehicle. All treatments were administered via oral gavage once daily. After administration for 4 weeks, all mice were fasted 12 hours, and blood was collected from the retro-orbital sinus under ether anesthesia. […]
(§2) Total RNA from liver tissue of mice was isolated with a Trizol Reagent (Molecular Research Center, Inc., Cincinnati, Ohio, USA) according to the manufacturer's instructions. The integrity of the extracted total RNA was examined by 2% agarose gel electrophoresis, and the RNA concentration was determined by the ultraviolet (UV) light absorbency at 260 nm and 280 nm (Spectrophotometer U-2800A, Hitachi). […]
(§3) Levels of mRNA of target genes were quantified by semi-quantitative reverse transcription polymerase chain reaction (RT-PCR). […] PCR products were analyzed by 2% agarose gel and stained with ethidium bromide.

membrane GLUT4 = test: Western blotting of skeletal muscular membrane GLUT4 in HFD-fed mice; conditions: skeletal muscle, AnK 10, 20, 40, Feno 250, Metf 300 mg/kg/day, as compared with the HF group
Source text: The 4-week old male C57BL/6J mice (total amount n=63) were obtained from the National Laboratory Animal Center (Taipei, Taiwan). After acclimatization for one week, all of the mice were randomly assigned into a control (CON) group and a high-fat diet (HFD) group. […] After HFD feeding for 8 weeks, the HFD group was randomly subdivided into six groups (n=9 per group) receiving different treatments and fed on HFD. […] The HF+AnK1, HF+AnK2, and HF+AnK3 groups are collectively termed AnK-treated HFD groups in the following examples. The CON mice were administered vehicle. All treatments were administered via oral gavage once daily. After administration for 4 weeks, all mice were fasted 12 hours, and blood was collected from the retro-orbital sinus under ether anesthesia. At the end of the experiment, the mice were sacrificed via carbon dioxide inhalation. Liver, adipose tissue, and skeletal muscle were collected and immediately stored at −80° C. for target gene analysis.
About 0.1 g of liver tissue, skeletal muscle, or adipose tissue was used for the homogenate samples. Samples were powdered under liquid nitrogen and homogenized for 20 seconds in 500 μL buffer containing 20 mM Tris-HCl (pH 7.4 at 4° C.), 2% SDS, 5 mM EDTA, 5 mM EGTA, 1 mM dithiothreitol (DTT), 100 mM NaF, 2 mM sodium vanadate, 0.5 mM phenylmethylsulfonyl fluoride, 10 μg/mL leupeptin, and 10 μL/mL pepstatin. The total membrane fraction was used for measurement. The protein concentration in supernatant was determined with a BCA protein assay kit (Thermo Scientific, Rockford, Ill., USA). […] The membrane was blocked with 5% slim milk in Tris-buffered saline (TBS)(Amersham BioSciences, Uppsala, Sweden) containing 0.05% Tween-20 (Bio Rad, CA, USA) and incubated overnight at 4° C. with antibodies at 1:200 dilution. […] Immunoreactive bands were detected with ECL reagent kit (GE Healthcare BioSciences, Buckinghamshire, UK). The intensity of Western blot signals was analyzed using AlphaEase FC software (Alpha Innotech Corporation, Randburg, South Africa). […]

aP2 = test: Liver mRNA by semi-quantitative RT-PCR: aP2; conditions: HFD-fed mice, oral gavage once daily 4 weeks, AnK 10, 20, 40, Feno 250, Metf 300 mg/kg/day, vs HF group
Source text: as §1, §2, §3

apoCIII = test: Liver mRNA by semi-quantitative RT-PCR: apoCIII; conditions: HFD-fed mice, oral gavage once daily 4 weeks, AnK 10, 20, 40, Feno 250, Metf 300 mg/kg/day, vs HF group
Source text: as §1, §2, §3

Row | SMILES | Adipocyte size ([1]; HF + Metf: metformin 300 mg/kg/day oral gavage 4 weeks) | mRNA levels of G6Pase (G6Pase) | increase of membrane GLUT4 levels (membrane GLUT4) | mRNA levels of aP2 (aP2) | mRNA levels of apoCIII (apoCIII) | Adipocyte size ([1]; HF + AnK1: AnK 10 mg/kg/day oral gavage 4 weeks) | Adipocyte size ([1]; HF + AnK2: AnK 20 mg/kg/day oral gavage 4 weeks) | Adipocyte size ([1]; HF + AnK3: AnK 40 mg/kg/day oral gavage 4 weeks)
1 | CN(C)C(=N)N=C(N)N [Metf, metformin, reference compound] | 5873.7 ± 345.1 μm^2 | significantly decreased | 1.86 fold | significantly decreased | significantly decreased |  |  | 
2 | C=C(CC[C@@H](C)[C@H]1CC[C@H]2C3=C(C(=O)C[C@]12C)[C@@]1(C)CC[C@@H](O)[C@](C)(O)[C@@H]1C[C@@H]3O)C(C)C(=O)O (stereo partly drawn) [AnK, 3α,4β,7β-trihydroxy-4α-methylergosta-8,24(28)-dien-11-on-25S-26-oic acid] |  | significantly decreased | 1.52-2.20 fold | significantly decreased | significantly decreased | 6548.6 ± 214.7 μm^2 | 6483.8 ± 319.8 μm^2 | 5670.8 ± 281.6 μm^2
